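In this assay, cells in 96-well plates receive the compound at five concentrations for 48 hours. Endpoints are linearly interpolated between the surrounding concentrations. GI50 marks 50% less growth. TGI: concentration producing complete growth inhibition.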
Columns and labels:
Experiment in all cases: NCI tumour cell line growth inhibition, 48 h
NCI-H23 lung = test system: NCI-H23 lung
BT-549 breast = test system: BT-549 breast
DU-145 prostate = test system: DU-145 prostate
SK-OV-3 ovarian = test system: SK-OV-3 ovarian
LOX IMVI melanoma = test system: LOX IMVI melanoma
NCI-H522 lung = test system: NCI-H522 lung
NCI-H226 lung = test system: NCI-H226 lung
SF-295 CNS = test system: SF-295 CNS
SF-268 CNS = test system: SF-268 CNS
EKVX NSCLC = test system: EKVX NSCLC

Row | Structure (SMILES) | GI50 (NCI-H23 lung) | TGI (NCI-H23 lung) | GI50 (BT-549 breast) | TGI (BT-549 breast) | GI50 (DU-145 prostate) | TGI (DU-145 prostate) | GI50 (SK-OV-3 ovarian) | TGI (SK-OV-3 ovarian) | GI50 (LOX IMVI melanoma) | TGI (LOX IMVI melanoma) | GI50 (NCI-H522 lung) | TGI (NCI-H522 lung) | GI50 (NCI-H226 lung) | TGI (NCI-H226 lung) | GI50 (SF-295 CNS) | TGI (SF-295 CNS) | GI50 (SF-268 CNS) | TGI (SF-268 CNS) | GI50 (EKVX NSCLC) | TGI (EKVX NSCLC)
1 | COC(=O)c1c2c(c(C)[n+]([O-])c1C)C(=O)C(NCc1ccc(OC)cc1)=CC2=O | 1.81 µM | 4.26 µM | 2.96 µM | 13.3 µM | 3.02 µM | 10.2 µM | 4.11 µM | 15.8 µM | 2.41 µM | 7.3 µM | 1.95 µM | 4.73 µM | 3.45 µM | 13.5 µM | 1.79 µM | 5.09 µM | 2.64 µM | 10.3 µM | 1.88 µM | 4.44 µM
2 | Cc1c(C(Cc2ccccc2N(C)C(=O)/C=C\C(=O)O)c2c[nH]c3ccccc23)c2ccccc2n1C (stereo not given) | – | 32.8 µM | – | – | – | – | – | 40.2 µM | – | 29.2 µM | – | 28.6 µM | – | 43 µM | – | 28.8 µM | – | 35.9 µM | – | 33.1 µM
3 | NC1=C(O)c2cccc3cccc(c23)C1=O | – | > 100 µM | – | – | – | – | – | > 100 µM | – | > 100 µM | – | > 100 µM | – | > 100 µM | – | > 100 µM | – | > 100 µM | – | > 100 µM
4 | O=C(O)/C=C/c1ccc(O)c(O)c1 | – | > 100 µM | – | – | – | > 100 µM | – | > 100 µM | – | > 100 µM | – | > 100 µM | – | > 100 µM | – | > 100 µM | – | > 100 µM | – | > 100 µM
5 | Cc1cc(N(CCC#N)CCC#N)ccc1/C=C(\NC(=O)/C=C/c1ccccc1)C(=O)N=[N+]=[N-] | – | > 100 µM | – | – | – | – | – | > 100 µM | – | > 100 µM | – | > 100 µM | – | > 100 µM | – | > 100 µM | – | > 100 µM | – | > 100 µM
6 | CC(=O)N1C/C(=C\c2ccccc2)C(=O)/C(=C/c2ccccc2)C1 | – | 41.3 µM | – | – | – | – | – | > 54 µM | – | 9.01 µM | – | 27.9 µM | – | 35.5 µM | – | 26.9 µM | – | 66.1 µM | – | 51.3 µM
7 | COC(=O)C(=O)C(C(=O)C(=O)Nc1ccc(Cl)c(Cl)c1)c1nc2ccc(C(=O)c3ccccc3)cc2[nH]c1=O (stereo not given) | – | > 100 µM | – | > 100 µM | – | – | – | > 100 µM | – | > 100 µM | – | > 100 µM | – | > 100 µM | – | > 100 µM | – | > 100 µM | – | > 100 µM
8 | O=C1C2C3CC4C5C3C1C5C1(SCCS1)C42 (stereo not given) | – | – | – | – | – | – | – | > 100 µM | – | – | – | > 100 µM | – | > 100 µM | – | – | – | > 100 µM | – | –
9 | C/C(=N/NC(=O)c1ccccc1S(N)(=O)=O)C(CN1CCCCC1)C(C1=C(O)C2C=CC=CC2OC1=O)c1ccccc1 (stereo not given) | – | > 100 µM | – | – | – | – | – | > 100 µM | – | > 100 µM | – | > 100 µM | – | > 100 µM | – | > 100 µM | – | > 100 µM | – | > 100 µM
10 | CN1C(=O)C(c2c[nH]c3ccccc23)=C(c2c[nH]c3ccccc23)C1=O | 6.61 µM | > 25 µM | 8.14 µM | 24.7 µM | 9.38 µM | > 25 µM | 12 µM | > 25 µM | 3.73 µM | 9.3 µM | 4.69 µM | 12.5 µM | 5.96 µM | > 19.4 µM | 4.48 µM | 11.8 µM | 7.27 µM | > 25 µM | – | –

Source: PubChem BioAssay (NCI)
